IC50, EC50 and Emax data for 21 compounds are collected here from US9546157B2, “Asymmetric piperidinyl-substituted ureas as medicines” (Helsinn Healthcare SA, priority 2014, dated 2017).

Bounds are passed on as bounds.

In assay [1] the target is T1, GHSR1a (Homo sapiens, UniProt Q92847).
T1 construct: expressed in transfected cells; host or cells: HEK293
Kind of assay: Calcium FLIPR assay, GHSR-1a antagonism (reduction of ghrelin response). The assay is classed as cell-based. Conditions: HEK293/GHSR1a cells, ghrelin 10 nM. As to the method: (§1) The intracellular calcium assay was carried out in a 384-well format FLIPR™ (Molecular Device) HEK293/GHSR1a cell line. Cells were seeded 24 hr prior to the experiments at an optimal density per well. Preincubation with selected calcium dye lasted for 30-60 min at room temperature or 37° C. Test compounds, dissolved in DMSO, were added at the appropriate time and incubated for 15 min followed by the addition of ghrelin with FlexStation or FLIPR. Relative fluorescence was monitored by the FLIPR™ Molecular Device. EC50 and IC50 values were estimated from dose-response data using GraphPad Prism software. To check for GHSR-1a agonism the compound was added at t=20 sec. and the calcium response was followed for 2 minutes. To check for GHSR-1a antagonism the compound and Ghrelin (10 nM) were added to the cells at t=20 sec. and the calcium response was measured for 2 minutes. The potency of the antagonist was calculated by its ability to reduce the ghrelin response. Dose-response curves were made for relevant antagonists.

In assay [2] the target is T1, GHSR1a. Kind of assay: Calcium FLIPR assay, GHSR-1a agonism. The assay is classed as cell-based. On the set-up: Emax: unit not given here. Conditions: HEK293/GHSR1a cells. The procedure:
as §1

T1 sequence (Q92847 whole entry): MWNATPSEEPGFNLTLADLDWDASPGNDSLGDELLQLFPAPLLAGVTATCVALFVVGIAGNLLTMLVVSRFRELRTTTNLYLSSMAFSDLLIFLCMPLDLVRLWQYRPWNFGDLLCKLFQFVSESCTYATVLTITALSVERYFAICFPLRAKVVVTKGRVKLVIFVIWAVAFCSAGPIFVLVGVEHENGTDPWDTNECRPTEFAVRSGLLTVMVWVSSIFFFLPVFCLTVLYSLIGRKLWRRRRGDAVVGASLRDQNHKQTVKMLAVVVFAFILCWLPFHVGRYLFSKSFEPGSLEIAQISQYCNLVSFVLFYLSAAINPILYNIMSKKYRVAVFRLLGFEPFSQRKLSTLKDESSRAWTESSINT

One may read the IC50 as the point on the concentration scale where inhibition reaches its midpoint. As usually defined, the EC50 is the concentration that produces a half-maximal response. For the compound `CC(NC(=O)N(C)C1CCN(C)CC1)c1ccc(NC(=O)Nc2cccs2)c(Cl)c1Cl` (stereo not shown) [Compound H0784, 3-(1-(2,3-dichloro-4-(4-(thiophen-2-yl)ureido)phenyl)ethyl)-1-methyl-1-(1-methylpiperidin-4-yl)urea], the IC50 on GHSR1a [1] was determined as 529 nM. For the same compound, the EC50 at GHSR1a [2] was above 30000 nM.

In the case of `CCC(NC(=O)N(C)C1CCN(C)C1)c1ccc(-c2cncc(F)n2)c(Cl)c1Cl` (stereo not shown) [Compound H0864, 3-(1-(2,3-dichloro-4-(6-fluoropyrazin-2-yl)phenyl)propyl)-1-methyl-1-(1-methylpyrrolidin-3-yl)urea], the IC50 on GHSR1a [1] amounted to 718 nM. For the same compound, at GHSR1a [2], the EC50 is above 30000 nM.

For `CCOC(C#Cc1ccc(C(C)NC(=O)N(C)C2CCN(C)CC2)c(Cl)c1Cl)OCC` (stereo not shown) [Compound H0757, 3-(1-(2,3-dichloro-4-(3,3-diethoxyprop-1-yn-1-yl)phenyl)ethyl)-1-methyl-1-(1-methylpiperidin-4-yl)urea], on GHSR1a [1], the IC50 came out at 159 nM. On GHSR1a [2], the EC50 is 654 nM and the Emax turned out to be 2704.

Turning to `CC(NC(=O)N(C)C1CCN(C)CC1)c1ccc(-c2cn[nH]c2)c2ccccc12` (stereo not shown) [Compound H0576, 3-(1-(4-(1H-pyrazol-4-yl)naphthalen-1-yl)ethyl)-1-methyl-1-(1-methylpiperidin-4-yl)urea], the IC50 at GHSR1a [1] is 180 nM. The EC50 at GHSR1a [2] was above 30000 nM.

For the compound `C=Cc1cncc(-c2ccc(C(C)NC(=O)N(C)C3CCN(C)CC3)c(Cl)c2Cl)c1` (stereo not shown) [Compound H0706, 3-(1-(2,3-dichloro-4-(5-vinylpyridin-3-yl)phenyl)ethyl)-1-methyl-1-(1-methylpiperidin-4-yl)urea], the IC50 on GHSR1a [1] stood at 116 nM. Besides, on GHSR1a [2], the EC50 turned out to be 91 nM and the Emax is listed as 2111.

Regarding `COc1cncc(-c2ccc(C(C)NC(=O)N(C)C3CCN(C)CC3)c(Cl)c2Cl)n1` (stereo not shown) [Compound H0738, 3-(1-(2,3-dichloro-4-(6-methoxypyrazin-2-yl)phenyl)ethyl)-1-methyl-1-(1-methylpiperidin-4-yl)urea], the IC50 on GHSR1a [1] amounted to 696 nM. Also, on GHSR1a [2], the EC50 was above 30000 nM.

On to `COc1ccc(C(NC(=O)N(C)C2CCN(C)CC2)C(N)=O)c(Cl)c1Br` (stereo not shown) [Compound H0659, 2-(3-bromo-2-chloro-4-methoxyphenyl)-2-(3-methyl-3-(1-methylpiperidin-4-yl)ureido)acetamide], for which, on GHSR1a [1], the IC50 worked out at 390 nM. Also, at GHSR1a [2], the EC50 came to 353 nM and the Emax is listed as 200.

In the case of `CC(NC(=O)N(C)C1CCN(C)CC1)c1ccc(-c2cnc(N)s2)c(Cl)c1Cl` (stereo not shown) [Compound H0792, 3-(1-(4-(2-aminothiazol-5-yl)-2,3-dichlorophenyl)ethyl)-1-methyl-1-(1-methylpiperidin-4-yl)urea], on GHSR1a [1], the IC50 stood at 16 nM. Also, at GHSR1a [2], the EC50 is 7 nM and the Emax turned out to be 1096.

As for `CC(NC(=O)N(C)C1CCN(C)CC1)c1ccc(-c2ccc[nH]2)c(Cl)c1Cl` (stereo not shown) [Compound H0535, 3-(1-(2,3-dichloro-4-(1H-pyrrol-2-yl)phenyl)ethyl)-1-methyl-1-(1-methylpiperidin-4-yl)urea], at GHSR1a [1], the half-inhibitory concentration (IC50) stood at 34 nM. The EC50 at GHSR1a [2] came out at 4 nM.

Regarding `CC(NC(=O)N(C)C1CCN(C)CC1)c1ccc(-c2sccc2C(N)=O)c(Cl)c1Cl` (stereo not shown) [Compound H0774, 2-(2,3-dichloro-4-(1-(3-methyl-3-(1-methylpiperidin-4-yl)ureido)ethyl)phenyl)thiophene-3-carboxamide], the IC50 on GHSR1a [1] stood at 3400 nM. At GHSR1a [2], the EC50 is above 30000 nM.

With `CN1CCC(N(C)C(=O)NC(C#N)c2ccc(-c3cncc(C#N)c3)c(Cl)c2Cl)CC1` (stereo not shown) [Compound H0666, 3-(cyano(2,3-dichloro-4-(5-cyanopyridin-3-yl)phenyl)methyl)-1-methyl-1-(1-methylpiperidin-4-yl)urea], the IC50 on GHSR1a [1] was 8 nM. Moreover, at GHSR1a [2], the EC50 is 21 nM and the Emax worked out at 4927.

As for `CC(NC(=O)N(C)C1CCN(C)CC1)c1ccc(-c2ccc(C=O)s2)c(Cl)c1Cl` (stereo not shown) [Compound H0651, 3-(1-(2,3-dichloro-4-(5-formylthiophen-2-yl)phenyl)ethyl)-1-methyl-1-(1-methylpiperidin-4-yl)urea], on GHSR1a [1], the IC50 was determined as 4 nM. Besides, on GHSR1a [2], the EC50 is 11 nM and the Emax is 2300.

As for `CNc1ncc(-c2ccc(C(C)NC(=O)N(C)C3CCN(C)CC3)c(Cl)c2Cl)cn1` (stereo not shown) [Compound H0806, 3-(1-(2,3-dichloro-4-(2-(methylamino)pyrimidin-5-yl)phenyl)ethyl)-1-methyl-1-(1-methylpiperidin-4-yl)urea], the half-maximal inhibitory concentration (IC50) at GHSR1a [1] came out at 1.2 nM. Further, on GHSR1a [2], the EC50 was found to be 6.8 nM and the Emax was found to be 5751.

Regarding `CC(NC(=O)N(O)C1CCN(C)CC1)c1ccc(-c2cnccn2)c(Cl)c1Cl` (stereo not shown) [Compound H0756, 3-(1-(2,3-dichloro-4-(pyrazin-2-yl)phenyl)ethyl)-1-hydroxy-1-(1-methylpiperidin-4-yl)urea], the IC50 at GHSR1a [1] came out at 13 nM. In addition, at GHSR1a [2], the EC50 was 13 nM and the Emax came to 1729.

For the compound `CC(NC(=O)N(C)C1CCN(C)CC1)c1ccc(-c2cnc(N3CCCC3)nc2)c(Cl)c1Cl` (stereo not shown) [Compound H0813], the IC50 on GHSR1a [1] is 644 nM. At GHSR1a [2], the EC50 turned out to be 528 nM and the Emax was determined as 1605.

For the compound `CC(NC(=O)N(C)C1CCN(C)CC1)c1cnc(-c2cnccn2)c(Cl)c1Cl` (stereo not shown) [Compound H0881, 3-(1-(4,5-dichloro-6-(pyrazin-2-yl)pyridin-3-yl)ethyl)-1-methyl-1-(1-methylpiperidin-4-yl)urea], the IC50 at GHSR1a [1] came out at 810 nM. Besides, the EC50 at GHSR1a [2] was above 30000 nM.

With `CN1CCC(N(C)C(=O)NC2(c3ccc(-c4cccs4)c(Cl)c3Cl)CC2)CC1` [Compound H0672, 3-(1-(2,3-dichloro-4-(thiophen-2-yl)phenyl)cyclopropyl)-1-methyl-1-(1-methylpiperidin-4-yl)urea], the IC50 at GHSR1a [1] was above 1 nM. The EC50 at GHSR1a [2] is above 30000 nM.

For the compound `CC(NC(=O)N(C)C1CCN(C)CC1)c1ccc(-c2cnc(F)nc2)c(Cl)c1Cl` (stereo not shown) [Compound H0800, 3-(1-(2,3-dichloro-4-(2-fluoropyrimidin-5-yl)phenyl)ethyl)-1-methyl-1-(1-methylpiperidin-4-yl)urea], the IC50 on GHSR1a [1] is 1300 nM. Also, on GHSR1a [2], the EC50 is above 30000 nM.

Regarding `CC(O)C#Cc1ccc(C(C)NC(=O)N(C)C2CCN(C)CC2)c(Cl)c1Cl` (stereo not shown) [Compound H0733, 3-(1-(2,3-dichloro-4-(3-hydroxybut-1-yn-1-yl)phenyl)ethyl)-1-methyl-1-(1-methylpiperidin-4-yl)urea], on GHSR1a [1], the IC50 turned out to be 95 nM. Besides, the EC50 on GHSR1a [2] was above 30000 nM.

For the compound `CC(NC(=O)N(C)C1CCN(C)CC1)c1ccc(-c2ccc(C3CC3)nc2)c(Cl)c1Cl` (stereo not shown) [Compound H0820, 3-(1-(2,3-dichloro-4-(6-cyclopropylpyridin-3-yl)phenyl)ethyl)-1-methyl-1-(1-methylpiperidin-4-yl)urea], the IC50 on GHSR1a [1] came to 5.7 nM. Besides, at GHSR1a [2], the EC50 amounted to 9 nM and the Emax is 3955.

On to `CC(NC(=O)N(C)C1CCN(C)CC1)c1ccc(-c2cccnc2)c2ccccc12` (stereo not shown) [Compound H0577, 1-methyl-1-(1-methylpiperidin-4-yl)-3-(1-(4-(pyridin-3-yl)naphthalen-1-yl)ethyl)urea], for which, at GHSR1a [1], the IC50 came to 233 nM. Also, the EC50 at GHSR1a [2] is above 30000 nM.
